Measured values as given in patent US8906925B2, “Pyrido[4,3-B]indoles containing rigid moieties” (Medivation Technologies, Inc., priority 2008, dated 2014).
Several values for one entry are separate records, joined by “and”; a condition that tells them apart may be missing. Equal values may be shown once. Read-outs that look alike come from different tables or passages of the source.

Assays:
[1] = molecular target: human dopamine D2L receptor (Homo sapiens, UniProt P14416); experiment: Dopamine D2L radioligand binding ([3H]Spiperone); conditions: percent inhibition of specific binding, compound at 1 μM; for Inhibition of ligand binding, Dopamine D2L: 1 µM; for inhibition at 1 µM: read-out: Inhibition of ligand binding, Dopamine D2L
Chain of human dopamine D2L receptor (P14416 whole entry): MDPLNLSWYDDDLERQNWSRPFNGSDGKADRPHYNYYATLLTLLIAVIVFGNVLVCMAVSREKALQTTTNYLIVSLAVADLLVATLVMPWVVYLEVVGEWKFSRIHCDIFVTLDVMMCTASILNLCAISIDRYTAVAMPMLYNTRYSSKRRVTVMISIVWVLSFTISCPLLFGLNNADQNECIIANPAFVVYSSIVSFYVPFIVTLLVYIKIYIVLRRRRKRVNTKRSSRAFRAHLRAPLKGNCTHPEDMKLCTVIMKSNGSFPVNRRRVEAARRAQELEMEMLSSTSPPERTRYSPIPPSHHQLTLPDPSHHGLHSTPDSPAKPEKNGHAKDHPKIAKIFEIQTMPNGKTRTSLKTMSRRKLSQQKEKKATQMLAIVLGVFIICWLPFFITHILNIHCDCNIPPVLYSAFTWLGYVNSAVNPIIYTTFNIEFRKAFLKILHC
Text: Non-specific binding was estimated in the presence of […] Haloperidol. Receptor proteins were filtered and washed, the filters were then counted to determine [^3H]Spiperone specifically bound. […] Biochemical assay results are presented as the percent inhibition of specific binding in Table 9.

[2] = molecular target: T1, human recombinant adrenergic α1D receptor (Homo sapiens, UniProt P25100); experiment: Adrenergic α1D radioligand binding ([3H]Prozosin); conditions: percent inhibition of specific binding; compound at 1 μM; read-out: Inhibition of ligand binding, Adrenergic α1D
T1 construct: expressed in transfected cells; host or cells: human embryonic kidney (HEK-293) cells
T1 sequence (P25100 1-572): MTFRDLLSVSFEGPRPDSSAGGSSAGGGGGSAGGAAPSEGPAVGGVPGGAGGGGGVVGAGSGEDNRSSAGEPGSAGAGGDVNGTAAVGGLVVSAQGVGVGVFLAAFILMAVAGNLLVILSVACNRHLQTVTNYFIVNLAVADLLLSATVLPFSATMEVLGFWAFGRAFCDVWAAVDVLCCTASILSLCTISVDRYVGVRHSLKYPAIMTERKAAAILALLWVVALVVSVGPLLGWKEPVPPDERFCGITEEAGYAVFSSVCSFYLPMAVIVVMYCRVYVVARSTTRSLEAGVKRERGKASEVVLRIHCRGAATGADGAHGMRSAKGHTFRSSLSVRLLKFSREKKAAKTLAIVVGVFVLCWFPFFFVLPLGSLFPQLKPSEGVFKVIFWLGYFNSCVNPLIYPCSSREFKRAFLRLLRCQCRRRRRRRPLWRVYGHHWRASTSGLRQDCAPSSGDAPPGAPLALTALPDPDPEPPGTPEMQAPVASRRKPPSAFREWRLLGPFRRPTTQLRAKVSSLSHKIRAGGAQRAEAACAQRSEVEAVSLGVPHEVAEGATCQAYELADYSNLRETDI
Procedure: Compounds of invention were incubated with 0.6 nM [^3H]Prozosin for 60 min. at 25° C. Non-specific binding was estimated in the presence of 10 μM phentolamine. Receptor proteins were filtered and washed, the filters were then counted to determine [^3H]Prozosin specifically bound. Compounds were screened at 1 μM or lower, using 1% DMSO as vehicle. Biochemical assay results are presented as the percent inhibition of specific binding in Table 9.

[3] = molecular target: T2, human recombinant serotonin (5-Hydroxytryptamine) 5-HT2C receptor (Homo sapiens, UniProt P28335); experiment: Serotonin 5-HT2C radioligand binding ([3H]Mesulergine); conditions: read-out: Inhibition of ligand binding, Serotonin 5-HT2C (percent inhibition of specific binding); for inhibition at 0.1 µM: compound at 0.1 μM; for inhibition at 1 µM: compound at 1 μM
T2 construct: expressed in transfected cells; host or cells: Chinese hamster ovary (CHO-K1) cells
T2 sequence (P28335 33-458): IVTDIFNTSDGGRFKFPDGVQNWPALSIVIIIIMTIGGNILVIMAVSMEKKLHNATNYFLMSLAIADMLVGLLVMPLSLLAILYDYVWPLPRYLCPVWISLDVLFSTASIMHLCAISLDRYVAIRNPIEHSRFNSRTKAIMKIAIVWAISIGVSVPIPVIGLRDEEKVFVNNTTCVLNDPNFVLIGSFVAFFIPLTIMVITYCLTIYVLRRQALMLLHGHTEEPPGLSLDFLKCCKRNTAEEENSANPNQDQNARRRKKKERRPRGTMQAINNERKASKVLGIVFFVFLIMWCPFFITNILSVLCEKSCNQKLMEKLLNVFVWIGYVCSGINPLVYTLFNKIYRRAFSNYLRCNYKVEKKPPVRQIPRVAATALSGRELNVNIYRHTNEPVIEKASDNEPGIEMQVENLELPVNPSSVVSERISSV
Outline: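 Compounds tested at 1 μM or lower (1% DMSO vehicle) for displacement of 1 nM [3H]Mesulergine over 60 min at 25° C. Specific binding determined by filtration counting, with 1 μM Mianserin defining non-specific binding; values are percent inhibition.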

[4] = molecular target: histamine receptor H1 (Homo sapiens, UniProt P35367); experiment: Histamine H1 radioligand binding ([3H]Pyrilamine); conditions: for inhibition at 1 µM: read-out: Histamine Binding (1 μM) H1, percent inhibition of specific binding, 1 μM
Chain of histamine receptor H1 (P35367 whole entry): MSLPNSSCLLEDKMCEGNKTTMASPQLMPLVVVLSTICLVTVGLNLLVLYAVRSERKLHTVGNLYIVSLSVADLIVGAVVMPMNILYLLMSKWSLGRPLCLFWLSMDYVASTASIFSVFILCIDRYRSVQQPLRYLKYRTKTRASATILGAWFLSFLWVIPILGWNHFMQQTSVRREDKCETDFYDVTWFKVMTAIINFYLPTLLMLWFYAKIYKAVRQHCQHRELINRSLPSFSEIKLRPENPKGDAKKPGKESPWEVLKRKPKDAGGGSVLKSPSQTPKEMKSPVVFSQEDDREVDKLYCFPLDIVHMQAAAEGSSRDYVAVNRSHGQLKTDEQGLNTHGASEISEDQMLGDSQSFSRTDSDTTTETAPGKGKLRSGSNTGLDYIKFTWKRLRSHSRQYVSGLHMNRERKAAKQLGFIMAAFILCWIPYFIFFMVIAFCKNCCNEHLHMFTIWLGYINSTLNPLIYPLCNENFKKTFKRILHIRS
Outline: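 Values are percent inhibition of specific [3H]pyrilamine (1.2 nM) binding with compounds at ≤1 μM (1% DMSO vehicle); 180 min incubation at 25 °C, pH 7.4 Tris buffer, on CHO-expressed human H1 receptor; 1 μM pyrilamine defined nonspecific binding, bound ligand counted after filtration.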

[5] = molecular target: T3, human recombinant serotonin (5-Hydroxytryptamine) 5-HT2A receptor (Homo sapiens, UniProt P28223); experiment: Serotonin 5-HT2A radioligand binding ([3H]Ketanserin)
T3 construct: expressed in transfected cells; host or cells: Chinese hamster ovary (CHO-K1) cells
T3 sequence (P28223 whole entry): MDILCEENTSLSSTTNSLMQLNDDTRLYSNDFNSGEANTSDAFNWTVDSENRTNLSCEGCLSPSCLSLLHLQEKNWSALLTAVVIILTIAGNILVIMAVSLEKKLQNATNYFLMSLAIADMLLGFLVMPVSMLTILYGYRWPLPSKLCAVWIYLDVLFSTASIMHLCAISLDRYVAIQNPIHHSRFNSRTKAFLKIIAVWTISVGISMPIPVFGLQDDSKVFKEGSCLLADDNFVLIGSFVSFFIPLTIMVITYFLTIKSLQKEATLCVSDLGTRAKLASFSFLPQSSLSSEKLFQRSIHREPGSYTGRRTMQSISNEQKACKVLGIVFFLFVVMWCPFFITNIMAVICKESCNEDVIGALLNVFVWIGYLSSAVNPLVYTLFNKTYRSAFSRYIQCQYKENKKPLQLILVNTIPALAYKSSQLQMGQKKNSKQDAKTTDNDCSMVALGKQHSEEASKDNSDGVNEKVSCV
Procedure: Compounds of the invention were incubated with 0.5 nM [^3H]Ketanserin for 60 min. at 25° C. Non-specific binding was estimated in the presence of 1 μM Mianserin. Receptor proteins were filtered and washed, the filters were then counted to determine [^3H]Ketanserin specifically bound.

[6] = molecular target: human recombinant serotonin (5-Hydroxytryptamine) 5-HT7 receptor (Homo sapiens, UniProt P34969); experiment: Serotonin 5-HT7 radioligand binding ([3H]LSD); conditions: for inhibition at 1 µM: compound at 1 μM; for inhibition at 1 µM / inhibition at 0.1 µM: read-out: Inhibition of ligand binding, Serotonin 5-HT7 (percent inhibition of specific binding); for Inhibition of ligand binding, Serotonin 5-HT7 (percent inhibition of specific binding) / inhibition at 0.1 µM: compound at 0.1 μM; for Inhibition of ligand binding, Serotonin 5-HT7 (percent inhibition of specific binding): 0.1 µM
Chain of human recombinant serotonin (5-Hydroxytryptamine) 5-HT7 receptor (P34969 whole entry): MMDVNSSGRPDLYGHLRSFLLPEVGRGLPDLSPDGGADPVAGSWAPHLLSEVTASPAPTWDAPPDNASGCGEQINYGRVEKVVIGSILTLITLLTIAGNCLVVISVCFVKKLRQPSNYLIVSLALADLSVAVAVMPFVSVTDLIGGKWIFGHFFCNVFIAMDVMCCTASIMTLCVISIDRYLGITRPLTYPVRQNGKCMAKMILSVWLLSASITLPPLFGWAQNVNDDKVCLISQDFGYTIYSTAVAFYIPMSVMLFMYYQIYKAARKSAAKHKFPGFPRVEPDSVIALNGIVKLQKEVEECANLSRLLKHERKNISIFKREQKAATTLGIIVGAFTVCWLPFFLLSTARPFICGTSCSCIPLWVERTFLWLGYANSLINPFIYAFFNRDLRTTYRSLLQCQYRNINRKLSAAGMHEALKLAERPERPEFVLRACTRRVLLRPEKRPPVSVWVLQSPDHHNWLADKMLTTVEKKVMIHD
Text: Receptor proteins were filtered and washed, the filters were then counted to determine [^3H]LSD specifically bound.

[7] = read-out: Inhibition of ligand binding, Serotonin 5-HT2A (percent inhibition of specific binding), compound at 0.1 μM
[8] = read-out: Inhibition of ligand binding, Serotonin 5-HT2A (percent inhibition of specific binding), compound at 1 μM

Row | inhibition at 0.1 µM ([5]; compound at 0.1 μM, read-out: Inhibition of ligand binding, Serotonin 5-HT2A (percent inhibition of specific binding)) | inhibition at 1 µM ([5]; compound at 1 μM, read-out: Inhibition of ligand binding, Serotonin 5-HT2A (percent inhibition of specific binding)) | SMILES | Inhibition of ligand binding, Dopamine D2L [1] | inhibition at 1 µM [1] | inhibition at 1 µM [2] | inhibition at 0.1 µM [3] | inhibition at 1 µM [3] | Histamine Binding (1 μM) H1, percent inhibition of specific binding [4] | inhibition at 1 µM [4] | inhibition at 0.1 µM [5, 7] | inhibition at 1 µM [5, 8] | inhibition at 1 µM [6] | Inhibition of ligand binding, Serotonin 5-HT7 (percent inhibition of specific binding) [6] | inhibition at 0.1 µM [6]
1 | – | – | CCC(O)(Cn1c2c(c3cc(Cl)ccc31)CN(C)CC2)c1ccc(F)cc1 (stereo not shown) [Compound 78, 1-(8-chloro-1,2,3,4-tetrahydro-2-methylpyrido[4,3-b]indol-5-yl)-2-(4-fluorophenyl)butan-2-ol] | 33% | 27% | 49% | 69% | 103% | 69% | 52% | 76% | 97% | 97% | – | –
2 | – | – | CN1CCc2c(c3cc(Cl)ccc3n2CC(O)(c2ccc(F)cc2)C2CC2)C1 (stereo not shown) [Compound 82, 2-(8-chloro-1,2,3,4-tetrahydro-2-methylpyrido[4,3-b]indol-5-yl)-1-cyclopropyl-1-(4-fluorophenyl)ethanol] | 45% | 39% | 62% | 94% | 105% | 35% and 64% | – | 92% | 100% | 93% | 95% | 86%
3 | 98% | 99% | C/C(=C\n1c2c(c3cc(Cl)ccc31)CN(C)CC2)c1ccc(F)cc1 [Compound 83, (E)-8-chloro-5-(2-(4-fluorophenyl)prop-1-enyl)-2,3,4,5-tetrahydro-2-methyl-1H-pyrido[4,3-b]indole] | – | 98% | 96% | 100% | 98% | 60% and 79% and 84% | – | – | – | 93% | 96% | 82%
4 | – | – | C/C(=C\n1c2c(c3cc(C)ccc31)CN(C)CC2)c1ccc(F)cc1 [Compound 87, (E)-5-(2-(4-fluorophenyl)prop-1-enyl)-2,3,4,5-tetrahydro-2,8-dimethyl-1H-pyrido[4,3-b]indole] | – | 97% | 99% | 101% | 100% | 81% | 65% | 100% | 99% | 100% | – | –
5 | – | – | C/C(=C\n1c2c(c3cc(Cl)ccc31)CN(C)CC2)c1ccncc1 [Compound 90, (E)-8-chloro-2,3,4,5-tetrahydro-2-methyl-5-(2-(pyridin-4-yl)prop-1-enyl)-1H-pyrido[4,3-b]indole] | 98% | 93% | 93% | 85% | 97% | 59% | 48% | 97% | 100% | – | – | 82%
6 | – | – | C/C(=C\n1c2c(c3cc(Cl)ccc31)CN(C)CC2)c1ccc(Cl)cc1 [Compound 100, (E)-8-chloro-5-(2-(4-chlorophenyl)prop-1-enyl)-2,3,4,5-tetrahydro-2-methyl-1H-pyrido[4,3-b]indole] | 68% | 67% | 87% | 104% | 97% | 67% | 65% | 97% | 101% | 99% | – | –
7 | – | – | CN1CCc2c(c3cc(Cl)ccc3n2/C=C(/c2ccc(F)cc2)C2CC2)C1 [Compound 110, (E)-8-chloro-5-(2-cyclopropyl-2-(4-fluorophenyl)vinyl)-2,3,4,5-tetrahydro-2-methyl-1H-pyrido[4,3-b]indole] | 98% | 96% | 86% | 99% | 101% | 83% | 77% | 102% | 98% | 92% | – | –
8 | – | – | C=C(Cn1c2c(c3cc(Cl)ccc31)CN(C)CC2)c1ccc(F)cc1 [Compound 128, 8-chloro-5-(2-(4-fluorophenyl)allyl)-2,3,4,5-tetrahydro-2-methyl-1H-pyrido[4,3-b]indole] | – | 97% | 91% | – | 100% | – | 98% | 99% | 100% | 98% | – | –
9 | – | – | C=C(Cn1c2c(c3cc(C)ccc31)CN(C)CC2)c1ccc(F)cc1 [Compound 132, 5-(2-(4-fluorophenyl)allyl)-2,3,4,5-tetrahydro-2,8-dimethyl-1H-pyrido[4,3-b]indole] | – | 91% | 93% | – | 96% | – | 96% | – | 100% | 103% | – | –
10 | – | – | Cc1ccc2c(c1)c1c(n2CC(O)(c2ccc(F)cc2)C2CCCCC2)CCN(C)C1 (stereo not shown) [Compound 171, 1-cyclohexyl-2-(2,8-dimethyl-3,4-dihydro-1H-pyrido[4,3-b]indol-5(2H)-yl)-1-(4-fluorophenyl)ethanol] | – | 12% | 49% | 51% | 98% | – | 13% | 60% | 97% | 42% | – | –
11 | – | – | Cc1ccc2c(c1)c1c(n2CC(O)c2ccc(F)cc2)CCN(C)C1 (stereo not shown) [Compound 172, 2-(2,8-dimethyl-3,4-dihydro-1H-pyrido[4,3-b]indol-5(2H)-yl)-1-(4-fluorophenyl)ethanol] | – | 36% | 88% | – | 97% | – | 95% | – | 91% | 100% | – | –
